From patent US6693123B2 (University of Pittsburgh, priority 1995, dated 2004)
Structures can show the parent of a compound that is named as a salt.

The molecules below were run against T1, Rat brain protein farnesyltransferase (Rattus norvegicus, UniProt Q02293+Q04631) (assay: In vitro inhibition of protein farnesyltransferase, Amersham scintillation proximity assay with biotin-K Ras B fragment). Settings: Inhibition of farnesyltransferase; compound at 0.1 μM (Table 6, values marked *); read-out: % inhibition at 0.1 μM.
T1 construct: The enzyme is purified according to Reiss, Y., et al., Cell, 62: 81-88 (1990), utilizing steps one through three; from tissue; host or cells: rat brain
Format: biochemical
From the text: The ability of the compounds of the invention to inhibit protein farnesyltransferase or protein geranylgeranyltransferase can be measured according to the method of Moores, et al., J. Biol. Chem. 266: 14603 (1991) or the method of Vogt, et al., J. Biol. Chem. 270:660-664 (1995). In addition, procedures for determination of the inhibition of farnesylation of the oncogene protein Ras are described by Goldstein, et al., J. Biol. Chem., 266:15575-15578 (1991) and by Singh in U.S. Pat. No. 5,245,061.
In addition, in vitro inhibition of protein farnesyltransferase may be measured by the following procedure. Rat brain protein farnesyltransferase activity is measured using an Amersham Life Science commercial scintillation proximity assay kit and substituting a biotin-K Ras B fragment (biotin-[…]Ue-Met-CO2H), 0.1 mM final concentration, for the biotin-lamin substrate provided by Amersham. The enzyme is purified according to Reiss, Y., et al., Cell, 62: 81-88 (1990), utilizing steps one through three. […]
The % inhibition of protein farnesyltransferase was determined for representative compounds of the invention.
Work on `COc1ccncc1C=Cc1ccc(C(=O)N[C@@H](CCSC)C(=O)O)c(-c2ccccc2C)c1` [Example 1361, N-[4-(2-(4-Methoxypyridin-3-yl)ethenyl)-2-(2-methylphenyl)benzoyl]methionine Sodium Salt] yielded an inhibition at 0.1 µM of 96%.

Same assay, conditions: Inhibition of farnesyltransferase; compound at 1 × 10^−5 M (Table 1)
In the case of `CSCC[C@H](NC(=O)c1ccc(NC(=O)c2cccnc2)cc1-c1ccccc1)C(=O)O` [Example 200, [4-(3-Pyridylcarbonylamino)-2-phenylbenzoyl]methionine Hydrochloride], the inhibition at 10 µM is reported as 93%.

Same assay, conditions: Inhibition of farnesyltransferase; compound at 1 × 10^−6 M (Table 2)
With `CSCC[C@H](NC(=O)c1ccc(CSc2cccnc2)cc1-c1ccccc1C)C(=O)O` [Example 324] the “% inhibition at 1 × 10^−6 M” value was 98%.

Same assay, conditions: Inhibition of farnesyltransferase; compound at 1 × 10^−6 M (Table 2); read-out: % inhibition at 1 × 10^−6 M
Work on `CSCC[C@H](NC(=O)c1ccc(CSc2cccnc2)cc1-c1ccccc1)C(=O)O` [Example 237, [4-(3-Pyridylthiomethyl)-2-phenylbenzoyl]methionine] yielded an inhibition at 1 µM of 98%.
With `CNC(=O)[C@H](CCSC)NC(=O)c1ccc(NCc2cccnc2)cc1-c1ccccc1` [Example 197, [4-(3-Pyridylmethylamino)-2-phenylbenzoyl]methioninemethylamide] the inhibition at 1 µM was 1%.
Molecule `CSCC[C@H](NC(=O)c1ccc(COc2cccnc2)cc1-c1ccccc1)C(=O)NS(C)(=O)=O` [Example 250, [4-(3-Pyridyloxymethyl)-2-phenylbenzoyl]methionine Methylsulfonimide] has an inhibition at 1 µM of 96%.
Work on `CSCC[C@H](NC(=O)c1ccc(C#Cc2cccnc2)cc1-c1ccccc1)C(=O)O` [Example 218, {4-[(Pyrid-3-yl)ethynyl]-2-phenylbenzoyl}methionine Hydrochloride] yielded an inhibition at 1 µM of 89%.
In the case of `CS(=O)(=O)CC[C@H](NC(=O)c1ccc(C(O)C(O)c2cccnc2)cc1-c1ccccc1)C(=O)O` (mixture of isomers) [Example 221, N-{4-[2-(Pyrid-3-yl)-1,2-dihydroxyethyl]-2-phenylbenzoyl]-2-amino-4-(methylsulfonyl)butanoic Acid], the inhibition at 1 µM is reported as 55%.
`COC(=O)[C@H](CCSC)NC(=O)c1ccc(COc2cccnc2)cc1-c1ccccc1C` [Example 307, [4-(3-Pyridyloxymethyl)-2-(2-methylphenyl)benzoyl]methionine Methyl Ester] gave an inhibition at 1 µM of 82%.
Molecule `COC(=O)[C@H](CCSC)NC(=O)c1ccc(COc2cccnc2)cc1-c1ccccc1` [Example 234, [4-(3-Pyridyloxymethyl)-2-phenylbenzoyl]methionine Methyl Ester] has an inhibition at 1 µM of 4%.
`Cc1ccccc1-c1cc(/C=C/c2cnc3ccccc3c2)ccc1C(=O)N[C@@H](CC[S+](C)[O-])C(=O)O` (stereo partly drawn) [Example 488] showed an inhibition at 1 µM of 41%.
With `CSCC[C@H](NC(=O)c1ccc(CNc2ccccn2)cc1-c1ccccc1)C(=O)O` [Example 160, [4-(2-Pyridylaminomethyl)-2-phenylbenzoyl]methionine] the inhibition at 1 µM was 30%.
Molecule `CSCC[C@H](NC(=O)c1ccc(CN(Cc2ccccc2)c2cccnc2)cc1-c1ccccc1C)C(=O)OCOC(C)=O` [Example 499, Acetoxymethyl N-[4-N-Benzyl-N-pyridin-3-ylaminomethyl-2-(2-methylphenyl)benzoyl]methionine] has an inhibition at 1 µM of 98%.
Work on `CSCC[C@H](NC(=O)c1ccc(COc2cccnc2)cc1-c1ccccc1)C(=O)O` [Example 235, [4-(3-Pyridyloxymethyl)-2-phenylbenzoyl]methionine] yielded an inhibition at 1 µM of 95%.
`CCc1nc(NC(=O)c2ccc(COc3cccnc3)cc2-c2ccccc2)sc1C(=O)O` [Example 228] was tested, and the inhibition at 1 µM was 39%.
For `CSCC[C@H](NC(=O)c1ccc(NCc2ncc[nH]2)cc1-c1ccccc1C)C(=O)O` [Example 386, 4-[N-(1-H-Imidazole-2-yl)methylamino-2-(2-methylphenyl)benzoyl]methionine], the inhibition at 1 µM was over 50%.
`CCCCc1cc(C(=O)N[C@@H](CCSC)C(=O)O)c(-c2ccccc2C)cc1COc1cccnc1` [Example 319, [4-(3-Pyridyloxymethyl)-2-(2-methylphenyl)-5-butylbenzoyl]methionine] was tested, and the inhibition at 1 µM was 98%.
For `CSCC[C@H](NC(=O)c1ccc(CS(=O)(=O)c2cccnc2)cc1-c1ccccc1)C(=O)O` [Example 233, [4-(3-Pyridylsulfonylmethyl)-2-phenylbenzoyl]methionine], the inhibition at 1 µM was 65%.
For `CSCC[C@H](NC(=O)c1ccc(CCc2cccnc2)cc1-c1ccccc1)C(=O)O` [Example 213, {4-[2-(Pyrid-3-yl)ethyl]-2-phenylbenzoyl}methionine Sodium Salt], the inhibition at 1 µM was 98%.
`CSCC[C@H](NC(=O)c1cc(-c2ccc(C)cc2)c(COc2cccnc2)cc1-c1ccccc1C)C(=O)O` [Example 343] gave an inhibition at 1 µM of 72%.
Molecule `CSCC[C@H](NC(=O)c1ccc(NCc2c[nH]cn2)cc1-c1ccccc1)C(=O)O` [Example 167, [4-(1H-Imidazol-4-ylmethyl)amino-2-phenylbenzoyl]methionine Hydrochloride] has an inhibition at 1 µM of 98%.
Molecule `CSCC[C@H](NC(=O)c1ccc(/C=C/c2cccnc2)cc1-c1ccccc1C)C(=O)NC(=O)c1ccccc1` [Example 797, Benzoyl N-[4-(2-Pyrid-3-ylethen-1-yl)-2-(2-methylphenyl)benzoyl]methioninamide] has an inhibition at 1 µM of 35%.
Work on `CSCC[C@H](NC(=O)c1ccc(NCc2cccnc2)cc1-c1ccccc1)C(N)=O` [Example 196, [4-(3-Pyridylmethylamino)-2-phenylbenzoyl]methionineamide] yielded an inhibition at 1 µM of 43%.

Same assay, conditions: Inhibition of farnesyltransferase; compound at 1 × 10^−7 M (Table 3); read-out: % inhibition at 1 × 10^−7 M
`CSCC[C@H](NC(=O)c1ccc(/C=C/c2cnccc2C(=O)c2ccccc2)cc1-c1ccccc1C)C(=O)O` [Example 483, N-[4-(2-(4-Benzoyl)pyrid-3-ylethen-1-yl)-2-(2-methylphenyl)benzoyl]methionine Lithium Salt] showed an inhibition at 0.1 µM of 95%.
`CSCC[C@H](NC(=O)c1cc(CC2CCCCC2)c(COc2cccnc2)cc1-c1ccccc1C)C(=O)O` [Example 921, N-[5-Cyclohexylmethyl-4-(pyrid-3-yloxymethyl)-2-(2-methylphenyl)benzoyl]methionine] gave an inhibition at 0.1 µM of 82%.

Same assay, conditions: Inhibition of farnesyltransferase; compound at 1 × 10^−8 M (Table 4); read-out: % inhibition at 1 × 10^−8 M
`CSCC[C@H](NC(=O)c1ccc(COc2cccnc2)cc1-c1ccccc1)C(=O)NS(=O)(=O)N1CCN(C)CC1` [Example 401, [4-(3-Pyridyloxymethyl)-2-phenylbenzoyl]methionine 4-Methylpiperazinesulfonimide] gave an inhibition at 0.01 µM of 66%.
Molecule `COc1ccccc1-c1cc(NCc2cnc[nH]2)ccc1C(=O)N[C@@H](CC(C)C)C(=O)O` [Example 397] has an inhibition at 0.01 µM of 50%.
Work on `CSCC[C@H](NC(=O)c1ccc(CN(Cc2ccccc2)c2cncc(F)c2)cc1-c1ccccc1C)C(=O)O` [Example 410, [4-(N-Benzyl-N-3-(5-fluorolpyridyl)aminomethyl)-2-(2-methylphenyl)benzoyl]methionine] yielded an inhibition at 0.01 µM of 94%.
`CSCC[C@H](NC(=O)c1ccc(CN(Cc2ccccc2)c2cccnc2)cc1-c1ccccc1C(F)(F)F)C(=O)O` [Example 409, [4-(N-Benzyl-N-3-pyridylaminomethyl)-2-(2-trifluoromethylphenyl)benzoyl]methionine] gave an inhibition at 0.01 µM of 84%.

Same assay, conditions: read-out: % inhibition at 0.01 μM
`CSCC[C@H](NC(=O)c1ccc(CN(CCCn2ccnc2)Cc2cc(F)cc(F)c2)cc1-c1ccccc1C)C(=O)O` [Example 1298, N-[4-N-(N-(3-(1-Imidazole)-propyl)-N-(3,5-difluorobenzyl)aminomethyl)-2-(2-methylphenyl)benzoyl]methionine Lithium Salt] showed an inhibition at 0.01 µM of 97%.

Same assay, conditions: read-out: % inhibition at 0.1 μM
`CSCC[C@H](NC(=O)c1ccc(/C=C(\C(=O)OC(C)(C)C)c2cccnc2)cc1-c1ccccc1C)C(=O)O` [Example 1078, N-[4-(Z-2-t-Butoxycarbonyl-2-pyrid-3-ylethenyl)-2-(2-methylphenyl)benzoyl]methionine, Lithium Salt] gave an inhibition at 0.1 µM of 86%.

Same assay, conditions: read-out: % inhibition at 1 × 10^−6 M
`CSCC[C@H](NC(=O)c1ccc(C(=O)N(Cc2ccccc2)c2cccnc2)cc1-c1ccccc1C)C(=O)O` [Example 451, N-[4-(N-3-Pyridyl-N-benzyl)carbonyl-2-(2-methylphenyl)benzoyl]methionine] was tested, and the inhibition at 1 µM was 85%.
`CSCC[C@H](NC(=O)c1ccc(/C=C/c2cncc(Br)c2)cc1-c1ccccc1)C(=O)O` [Example 215, {4-[2-(5-Bromopyrid-3-yl)ethenyl]-2-phenylbenzoyl}methionine Sodium Salt] gave an inhibition at 1 µM of 82%.

Same assay, conditions: read-out: % inhibition at 1 × 10^−7 M
In the case of `CSCC[C@H](NC(=O)c1ccc(CCc2cncc3ccccc23)cc1-c1ccccc1C)C(=O)O` [Example 492, N-[4-(2-Isoquinolin-4-ylethyl)-2-(2-methylphenyl)benzoyl]methionine Lithium Salt], the inhibition at 0.1 µM is reported as 95%.

Same assay, conditions: read-out: % inhibition at 1 × 10^−8 M
`CSCC[C@H](NC(=O)c1ccc(/C=C/c2cnccc2C(O)C23CC4CC(CC(C4)C2)C3)cc1-c1ccccc1C)C(=O)O` (stereo partly drawn) [Example 803, Lithium Salt] was tested, and the inhibition at 0.01 µM was 95%.
Work on `CSCC[C@H](NC(=O)c1ccc(/C=C/c2cnccc2C(O)(c2ccccc2)c2ccccc2)cc1-c1ccccc1C)C(=O)O` [Example 805, Lithium Salt] yielded an inhibition at 0.01 µM of 96%.
